Measured values from US10233186B2, “Inhibitors of activin receptor-like kinase” (BLUEPRINT MEDICINES CORPORATION, priority 2016, dated 2019).

Target: T1, ALK2 R206H (GST-tagged mutant ALK2) (Homo sapiens, UniProt Q04771, R206H)
T1 construct: purchased Carna Bioscience or ThermoFisher 09-148 or PV6232
T1 sequence (Q04771 21-509 R206H): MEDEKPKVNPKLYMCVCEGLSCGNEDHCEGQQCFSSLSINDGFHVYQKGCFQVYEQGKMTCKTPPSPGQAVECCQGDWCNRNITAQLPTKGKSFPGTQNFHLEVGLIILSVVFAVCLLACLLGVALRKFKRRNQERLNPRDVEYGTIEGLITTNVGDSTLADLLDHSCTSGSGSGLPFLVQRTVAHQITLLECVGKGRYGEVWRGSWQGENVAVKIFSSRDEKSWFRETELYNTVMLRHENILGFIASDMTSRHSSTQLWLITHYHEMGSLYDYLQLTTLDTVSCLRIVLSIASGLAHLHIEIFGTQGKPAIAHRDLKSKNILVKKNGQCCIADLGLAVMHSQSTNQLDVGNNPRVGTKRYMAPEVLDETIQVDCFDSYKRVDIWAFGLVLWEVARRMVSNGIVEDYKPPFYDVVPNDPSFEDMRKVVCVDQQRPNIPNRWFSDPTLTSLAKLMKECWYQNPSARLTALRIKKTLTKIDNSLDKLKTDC
Assay: ALK binding assay (LANTHASCREEN TR-FRET competitive binding, displacement of Kinase Tracer 178)
Conditions: ALK2 R206H, LANTHASCREEN TR-FRET competitive binding; read-out: Binding Assay (IC50)
Procedure: Binding assays were conducted using the LANTHASCREEN® technology (ThermoFisher Scientific). LANTHASCREEN® is a competitive binding, displacement assay where the assumed steady state occupancy of the binding site is measured using a time-resolved, fluorescence energy transfer (TR-FRET) readout between a fluorescent tracer and Europium (Eu)-tagged antibody specific for the kinase or expression tag (e.g. GST) of interest. Displacement of the tracer by a compound of the disclosure reduces, and is directly proportional to, the TR-FRET between the tracer and the antibody. Tracer was used at a concentration equal to or near to its Kd for the kinase.
In all cases, the kinase (2-5 nM) was mixed with Eu-tagged antibody (10 nM) mix and tracer (50 nM) were incubated with test compound titrations prepared in 100% DMSO (1% DMSO final) for 30 minutes at room temperature. All reagents and compounds were dissolved in Kinase Buffer A (ThermoFisher) to achieve the final concentration. […] This readout was normalized to 0% and 100% inhibited control wells, plotted against inhibitor concentration, and fitted to a 4-parameter log dose response curve.
Blank values in the table indicate that the particular compound was not tested in this assay.

SMILES	IC50 [µM]
CCN1CCN(c2ccc(-c3cc4c(N5CCN6C(=O)CCC6C5)ccnn4c3)cc2)CC1 (centres unmarked) [Compound 157, 2-(6-(4-(4-ethylpiperazin-1-yl)phenyl)pyrrolo[1,2-b]pyridazin-4-yl)hexahydropyrrolo[1,2-a]pyrazin-6(7H)-one]	> 0.05
CCN1CC2CN(c3ccnn4cc(-c5ccc(N6CCNCC6)cc5)cc34)CCN2C1=O (centres unmarked) [Compound 171]	0.01 to 0.05
O=C(C1CC1)N1CCN(c2ccnn3cc(-c4ccc([C@@H]5CCNC[C@@H]5F)cc4)cc23)CC1 [Compound 176]	0.01 to 0.05
CCN1CCC1COc1ccc(-c2cc3c(N4CCN(C(=O)C5CC5)CC4)ccnn3c2)cc1 (centres unmarked) [Compound 218]	0.01 to 0.05
O=C(C1CC1)N1CCN(c2ccnn3cc(-c4c(F)cc(N5CCNCC5)cc4F)cc23)CC1 [Compound 239]	< 0.01
O=C(C1CC1)N1CCN(c2ccnn3cc(-c4ccc(OCCN5CCNCC5)cc4)cc23)CC1 [Compound 273, cyclopropyl(4-(6-(4-(2-(piperazin-1-yl)ethoxy)phenyl)pyrrolo[1,2-b]pyridazin-4-yl)piperazin-1-yl)methanone]	0.01 to 0.05
CCN1CCN(c2ccc(-c3cc4c(N5CCN(C(=O)[C@@H]6C[C@@H]6F)CC5)ccnn4c3)cc2)CC1 [Compound 291]	0.01 to 0.05
CCN1CCN(c2ccc(-c3cc4c(N5CCN(C(=O)C6(F)CC6)CC5)ccnn4c3)cc2)CC1 [Compound 294]	0.01 to 0.05
CC(C)N1CCC(c2ccc(-c3cc4c(N5CC6CC(C5)N6C(=O)C5CC5)ccnn4c3)cc2)CC1 [Compound 306]	0.01 to 0.05
CCN1CCC(c2ccc(-c3cc4c(N5CCN(C(=O)C6(C(C)=O)CC6)CC5)ccnn4c3)cc2)C1 (centres unmarked) [Compound 311]	> 0.05
CCNC(=O)N1CC2CC(C1)N2c1ccnn2cc(-c3ccc(C4CCN(C(C)C)CC4)cc3)cc12 [Compound 319]	> 0.05
CCN(C)C(=O)N1CCN(c2ccnn3cc(-c4ccc(C5CCN(C(C)C)CC5)cc4)cc23)CC1 [Compound 342]	0.01 to 0.05
CCN1CCN(c2cc(F)c(-c3cc4c(N5CCN(C(=O)C6CC6)CC5)ccnn4c3)c(F)c2)CC1 [Compound 362]	0.01 to 0.05
O=C(C1CC1)N1CCN(c2ccnn3cc(-c4ccc(N5CCNCC5C(F)(F)F)cc4)cc23)CC1 (centres unmarked) [Compound 374, cyclopropyl(4-(6-(4-(2-(trifluoromethyl)piperazin-1-yl)phenyl)pyrrolo[1,2-b]pyridazin-4-yl)piperazin-1-yl)methanone]	0.01 to 0.05
N#C[C@H]1CC[C@H](C(=O)N2CCN(c3ccnn4cc(-c5ccc(C6CNCC6F)cc5)cc34)CC2)CC1 (some centres unmarked) [Compound 378]	< 0.01
CCN1CCN(c2ccc(-c3cc4c(N5CCN(C(=O)C6CC6)C(C(F)F)C5)ccnn4c3)cc2)CC1 (centres unmarked) [Compound 403, cyclopropyl(2-(difluoromethyl)-4-(6-(4-(4-ethylpiperazin-1-yl)phenyl)pyrrolo[1,2-b]pyridazin-4-yl)piperazin-1-yl)methanone]	> 0.05
CC(C)N1CCC(c2ccc(-c3cc4c(N5CCN(C(=O)C6CC(C#N)C6)CC5)ccnn4c3)cc2)CC1 (centres unmarked) [Compound 405]	< 0.01
CCN1CCC(c2ccc(-c3cc4c(N5CCN(C(=O)C6(C(F)(F)F)CC6)CC5)ccnn4c3)cc2)C1 (centres unmarked) [Compound 410]	> 0.05
CC(C)N1CCC(c2ccc(-c3cc4c(N5CCN(C(=O)C6(C7CC7)CC6)CC5)ccnn4c3)cc2)CC1 [Compound 414]	0.01 to 0.05
CCN1CCN(c2ccc(-c3cc4c(N5CCN(C(=O)N6CC7(COC7)C6)CC5)ccnn4c3)cc2)CC1 [Compound 417]	0.01 to 0.05
CCN1CCN(c2ccc(-c3cc4c(N5CCN(C(=O)C6(c7ccsc7)CC6)CC5)ccnn4c3)cc2)CC1 [Compound 439]	0.01 to 0.05
CCN1CCN(c2ccc(-c3cc4c(N5CCN(C(=O)C6(c7nccs7)CC6)CC5)ccnn4c3)cc2)CC1 [Compound 440]	> 0.05
CCN1CCN(c2ccc(-c3cc4c(N5CCN(C(=O)C6(c7cccc(F)c7)CC6)CC5)ccnn4c3)cc2)CC1 [Compound 443]	0.01 to 0.05
CCN1CCC(c2ccc(-c3cc4c(N5CCN(C(=O)C6CC6c6ccc(Cl)cc6)CC5)ccnn4c3)cc2)C1 (centres unmarked) [Compound 444]	0.01 to 0.05

The remaining lines, values ahead:

IC50 [µM]	SMILES
> 0.05	O=C(C1CC1)N1CCN(c2ccnn3cc(-c4ncc5n4CCNC5)cc23)CC1 [Compound 101]
0.01 to 0.05	O=C(C1CC1)N1CCN(c2ccnn3cc(-c4ccn(C5CCNC5)n4)cc23)CC1 (centres unmarked) [Compound 105]
> 0.05	CN1CCn2c(cnc2-c2cc3c(N4CCN(C(=O)C5CC5)CC4)ccnn3c2)C1 [Compound 106]
0.01 to 0.05	O=C(C1CC1)N1CCN(c2ccnn3cc(-c4nc5c(s4)CCNC5)cc23)CC1 [Compound 108]
> 0.05	O=C(C1CC1)N1CCN(c2ccnn3cc(-c4ccc(Br)cc4)cc23)CC1 [Compound 119]
< 0.01	O=C(C1CC1)N1CCN(c2ccnn3cc(-c4ccc(NC5=NCCN5)cc4)cc23)CC1 [Compound 121, cyclopropyl(4-(6-(4-(4,5-dihydro-1H-imidazol-2-ylamino)phenyl)pyrrolo[1,2-b]pyridazin-4-yl)piperazin-1-yl)methanone]
0.01 to 0.05	O=C(C1CC1)N1CCN(c2ccnn3cc(-c4ccc(C5CCOCC5)cc4)cc23)CC1 [Compound 126]
0.01 to 0.05	CCN1CCN(c2ccc(-c3cc4c(N5CCN(C(C)=O)CC5)ccnn4c3)cc2)CC1 [Compound 136]
0.01 to 0.05	CCN1CCC(n2ccc(-c3cc4c(N5CCN(C(=O)C6CC6)CC5)ccnn4c3)n2)C1 (centres unmarked) [Compound 138]
< 0.01	CCN1CCC(n2cc(-c3cc4c(N5CCN(C(=O)C6CC6)CC5)ccnn4c3)cn2)C1 (centres unmarked) [Compound 139]
0.01 to 0.05	CCNC(=O)N1CCN(c2ccnn3cc(-c4ccc([C@H]5CNCCO5)cc4)cc23)CC1 [Compound 141]
> 0.05	O=C(C1CC1)N1CCN(c2ccnn3cc(-c4ccc(N5CCNCC5=O)cc4)cc23)CC1 [Compound 151]
0.01 to 0.05	C[C@H]1CNC[C@@H](c2ccc(-c3cc4c(N5CCN(C(=O)C6CC6)CC5)ccnn4c3)cc2)O1 [Compound 165]
< 0.01	O=C(C1CC1)N1CCN(c2ccnn3cc(-c4ccc(OCC5CCNC5)cc4)cc23)CC1 (centres unmarked) [Compound 166]
0.01 to 0.05	C[C@@H]1CNC[C@@H](c2ccc(-c3cc4c(N5CCN(C(=O)C6CC6)CC5)ccnn4c3)cc2)O1 [Compound 168]
0.01 to 0.05	O=C(C1CC1)N1CCN(c2ccnn3cc(-c4ccc([C@H]5CCNC[C@H]5F)cc4)cc23)CC1 [Compound 175]

IC50 [µM]	SMILES
0.01 to 0.05	CCN1CCC(n2cc(-c3cc4c(N5CCN(C(=O)C6CC6)CC5)ccnn4c3)cn2)CC1 [Compound 183]
< 0.01	Cc1nc(C2CCNCC2)sc1-c1cc2c(N3CCN(C(=O)C4CC4)CC3)ccnn2c1 [Compound 190]
< 0.01	O=C(C1CC1)N1CCN(c2ccnn3cc(-c4ccc(N5CCC6(CNC6)C5)cc4)cc23)CC1 [Compound 198]
< 0.01	CCN1CCC[C@@H](c2ccc(-c3cc4c(N5CCN(C(=O)C6CC6)CC5)ccnn4c3)cc2)C1 [Compound 206]
0.01 to 0.05	CCN1CCC(c2ccc(-c3cc4c(N5CCN(C(=O)C(C)=O)CC5)ccnn4c3)cc2)CC1 [Compound 215]
< 0.01	CC(C)N1CC(Oc2ccc(-c3cc4c(N5CCN(C(=O)C6CC6)CC5)ccnn4c3)cc2)C1 [Compound 220]
< 0.01	O=C(C1CC1)N1CCN(c2ccnn3cc(-c4ccc(N5CCC6(CCNC6)C5)cc4)cc23)CC1 (centres unmarked) [Compound 244]
0.01 to 0.05	CCN1C[C@H]2CN(c3ccnn4cc(-c5ccc(N6CCN(C(C)C)CC6)cc5)cc34)CCN2C1=O [Compound 331]
0.01 to 0.05	CCN1CCC(c2ccc(-c3cc4c(N5CCN(C(=O)C6(C(F)F)CC6)CC5)ccnn4c3)cc2)C1 (centres unmarked) [Compound 356]
< 0.01	CCN1CCC(c2ccc(-c3cc4c(N5CCN(C(=O)C6CC6C6CCC6)CC5)ccnn4c3)cc2)C1 (centres unmarked) [Compound 372]
0.01 to 0.05	CCN(CC)C(=O)N1CCN(c2ccnn3cc(-c4ccc(C5CCN(C(C)C)CC5)cc4)cc23)CC1 [Compound 392]
0.01 to 0.05	CCN1CCN(c2ccc(-c3cc4c(N5CCN(C(=O)N6CC(OC)C6)CC5)ccnn4c3)cc2)CC1 [Compound 397]
> 0.05	CCN1CCN(c2ccc(-c3cc4c(N5CCN(C(=O)N6CC(COC)C6)CC5)ccnn4c3)cc2)CC1 [Compound 425]
> 0.05	CCN1CCN(c2ccc(-c3cc4c(N5CCN(C(=O)C6(c7cccnc7)CC6)CC5)ccnn4c3)cc2)CC1 [Compound 433]
0.01 to 0.05	CCN1CCN(c2ccc(-c3cc4c(N5CCN(C(=O)C6(c7cccs7)CC6)CC5)ccnn4c3)cc2)CC1 [Compound 438]
< 0.01	CCN1CCC(c2ccc(-c3cc4c(N5CCN(C(=O)C6CC(O)(c7ccccc7)C6)CC5)ccnn4c3)cc2)CC1 (centres unmarked) [Compound 446]
